Laboratory results taken from ChEMBL document CHEMBL3351381, “Synthesis, structure-activity relationship studies, and antibacterial evaluation of 4-chromanones and chalcones, as well as olympicin A and derivatives” (J Med Chem, 2014).
≈ marks a conversion by molar mass, not a printed value.

Legend:
Assay type in all cases: functional
[1] = tested on: Mycobacterium tuberculosis; assay: Antimicrobial activity against Mycobacterium tuberculosis H37Rv by microbroth dilution method
Enterococcus faecalis = assay: Antimicrobial activity against Enterococcus faecalis ATCC 33186 by microbroth dilution method
Staphylococcus aureus [2] = assay: Antimicrobial activity against methicillin-sensitive Staphylococcus aureus ATCC 29213 by microbroth dilution method
Escherichia coli [3] = assay: Antimicrobial activity against Escherichia coli K-12 by microbroth dilution method
Escherichia coli [4] = assay: Antimicrobial activity against tolC-deficient Escherichia coli by microbroth dilution method
Staphylococcus aureus [5] = assay: Antimicrobial activity against methicillin-resistant Staphylococcus aureus NRS 70 by microbroth dilution method
Klebsiella pneumoniae = assay: Antimicrobial activity against Klebsiella pneumoniae ATCC 33495 at >200 ug/ml by microbroth dilution method
Pseudomonas aeruginosa = assay: Antimicrobial activity against Pseudomonas aeruginosa PAO1 at >200 ug/ml by microbroth dilution method

SMILES | MIC [1] [µg/mL] | MIC (Enterococcus faecalis) [µg/mL] | MIC (Staphylococcus aureus [2]) [µg/mL] | MIC (Escherichia coli [3]) [µg/mL] | MIC (Escherichia coli [4]) [µg/mL] | MIC (Staphylococcus aureus [5]) [µg/mL] | MIC (Klebsiella pneumoniae) [µg/mL] | MIC (Pseudomonas aeruginosa) [µg/mL]
CCCCCCOc1cc(O)cc(O)c1C(=O)C(C)CC (racemic) | 100 (≈ 340 µM) | 1.56 (≈ 5.3 µM) | 1.56 (≈ 5.3 µM) | > 200 | 3.13 (≈ 10.6 µM) | 1.56 (≈ 5.3 µM) | > 200 | > 200
C=CCOc1ccc(/C=C/C(=O)c2ccc(O)cc2O)cc1 | 50 (≈ 169 µM) | 100 (≈ 337 µM) | 25 (≈ 84.4 µM) | > 200 | > 200 | > 200 | > 200 | > 200
O=C1CC(C2CCCCC2)Oc2cc(O)cc(O)c21 (configuration not stated) | 100 (≈ 381 µM) | 25 (≈ 95.3 µM) | 25 (≈ 95.3 µM) | > 200 | 6.25 (≈ 23.8 µM) | 25 (≈ 95.3 µM) | > 200 | > 200
O=C1CC2(CCCCCC2)Oc2cc(O)ccc21 | 100 (≈ 406 µM) | 200 (≈ 812 µM) | 50 (≈ 203 µM) | > 200 | 12.5 (≈ 50.7 µM) | 50 (≈ 203 µM) | > 200 | > 200
CCCCCCC1C/C(=N\O)c2c(O)cc(O)cc2O1 (configuration not stated) | 100 (≈ 358 µM) | 12.5 (≈ 44.7 µM) | 6.25 (≈ 22.4 µM) | > 200 | 3.13 (≈ 11.2 µM) | 6.25 (≈ 22.4 µM) | > 200 | > 200
C=CCOc1cccc(/C=C/C(=O)c2ccc(O)cc2O)c1 | 50 (≈ 169 µM) | > 200 | 6.25 (≈ 21.1 µM) | > 200 | 3.13 (≈ 10.6 µM) | 12.5 (≈ 42.2 µM) | > 200 | > 200
CCCCCCCCCC1CC(=O)c2ccc(O)cc2O1 (configuration not stated) | > 200 | 200 (≈ 689 µM) | > 200 | > 200 | > 200 | > 200 | > 200 | > 200
O=C1CC2(CCCCC2)Oc2cc(O)ccc21 | 100 (≈ 431 µM) | > 200 | 200 (≈ 861 µM) | > 200 | 50 (≈ 215 µM) | 200 (≈ 861 µM) | > 200 | > 200
C=CCOc1cc(O)cc(O)c1C(=O)[C@@H](C)CC |  | 12.5 (≈ 49.9 µM) | 12.5 (≈ 49.9 µM) |  | 3.13 (≈ 12.5 µM) | 12.5 (≈ 49.9 µM) | > 200 | > 200
CCCCCCCCCC1CC(=O)c2c(OCOC)cc(OCOC)cc2O1 (configuration not stated) | 100 (≈ 253 µM) | > 200 | > 200 | > 200 | > 200 | > 200 | > 200 | > 200
CCCCCCC1CC(O)c2ccc(O)cc2O1 (configuration not stated) | 50 (≈ 200 µM) | 50 (≈ 200 µM) | > 200 | > 200 | 3.13 (≈ 12.5 µM) | 200 (≈ 799 µM) | > 200 | > 200
CCCC1CC(O)c2ccc(O)cc2O1 (configuration not stated) | 12.5 (≈ 60 µM) | 100 (≈ 480 µM) | 50 (≈ 240 µM) | > 200 | 50 (≈ 240 µM) | 50 (≈ 240 µM) | > 200 | > 200
COCOc1ccc(C(=O)/C=C/C2=CCC3CC2C3(C)C)c(O)c1 (configuration not stated) | 100 (≈ 304 µM) | > 200 | > 200 | > 200 | 25 (≈ 76.1 µM) | > 200 | > 200 | > 200
CC1(C)C2CC=C(/C=C/C(=O)c3c(O)cc(O)cc3O)C1C2 (configuration not stated) | > 200 | 25 (≈ 83.2 µM) | > 200 | > 200 | 6.25 (≈ 20.8 µM) | 200 (≈ 666 µM) | > 200 | > 200
CCCCCCCCCC1CC(O)c2ccc(O)cc2O1 (configuration not stated) | > 200 | 50 (≈ 171 µM) | 20 (≈ 68.4 µM) | > 200 | 12.5 (≈ 42.7 µM) | 25 (≈ 85.5 µM) | > 200 | > 200
CCCC1C/C(=N\O)c2c(O)cc(O)cc2O1 (configuration not stated) | 100 (≈ 421 µM) | 100 (≈ 421 µM) | 100 (≈ 421 µM) | > 200 | 25 (≈ 105 µM) | 50 (≈ 211 µM) | > 200 | > 200
C=CCOc1cc(O)cc(O)c1C(=O)C(C)CC (racemic) | 100 (≈ 400 µM) |  |  | > 200 | 3.13 (≈ 12.5 µM) | 6.25 (≈ 25 µM) | > 200 | > 200
CCCC1CC(=O)c2ccc(O)cc2O1 (configuration not stated) | 200 (≈ 970 µM) | > 200 | 200 (≈ 970 µM) | > 200 | 50 (≈ 242 µM) | > 200 | > 200 | > 200
CCC(C)C(=O)c1c(O)cc(O)cc1OC/C=C(\C)CCC=C(C)C (racemic) | 200 (≈ 577 µM) |  |  |  | > 200 | 3.13 (≈ 9.03 µM) | > 200 | > 200
O=C1CC(CCc2ccccc2)Oc2cc(O)ccc21 (configuration not stated) | 100 (≈ 373 µM) | > 200 | 50 (≈ 186 µM) | > 200 | 12.5 (≈ 46.6 µM) | 50 (≈ 186 µM) | > 200 | > 200
CCCCCCC1CC(=O)c2ccc(O)cc2O1 (configuration not stated) | 50 (≈ 201 µM) | > 200 | > 200 | > 200 | 3.13 (≈ 12.6 µM) | > 200 | > 200 | > 200
C=CCOc1ccccc1C1CC(=O)c2c(O)cc(O)cc2O1 (configuration not stated) | > 200 | 50 (≈ 160 µM) | 25 (≈ 80 µM) | > 200 | 6.25 (≈ 20 µM) | 12.5 (≈ 40 µM) | > 200 | > 200
COCOc1ccc2c(c1)OC(C1=CCC3CC1C3(C)C)CC2=O (configuration not stated) | 100 (≈ 304 µM) | > 200 | > 200 | > 200 | 6.25 (≈ 19 µM) | > 200 | > 200 | > 200
CCCCCCCC1CC(=O)c2ccc(O)cc2O1 (configuration not stated) | 50 (≈ 191 µM) | > 200 | > 200 | > 200 | 1.56 (≈ 5.95 µM) | > 200 | > 200 | > 200
CC1(C)C2CC=C(C3CC(=O)c4c(O)cc(O)cc4O3)C1C2 (configuration not stated) | 200 (≈ 666 µM) | 12.5 (≈ 41.6 µM) | 12.5 (≈ 41.6 µM) | > 200 | 3.13 (≈ 10.4 µM) | 6.25 (≈ 20.8 µM) | > 200 | > 200
O=C(N[C@H](CO)[C@H](O)c1ccc([N+](=O)[O-])cc1)C(Cl)Cl [CHLORAMPHENICOL] |  | 0.78 (≈ 2.41 µM) | 3.13 (≈ 9.69 µM) | 3.13 (≈ 9.69 µM) | 0.39 (≈ 1.21 µM) | 1.56 (≈ 4.83 µM) | > 200 | > 200
CCCCCCC1CC(=O)c2c(O)cc(O)cc2O1 (configuration not stated) | 50 (≈ 189 µM) | 100 (≈ 378 µM) |  | > 200 | 3.13 (≈ 11.8 µM) | 6.25 (≈ 23.6 µM) | > 200 | > 200
NC[C@H]1O[C@H](O[C@H]2[C@H](O)[C@@H](O[C@H]3O[C@H](CO)[C@@H](O)[C@H](N)[C@H]3O)[C@H](N)C[C@@H]2N)[C@H](O)[C@@H](O)[C@@H]1O [KANAMYCIN] |  | 25 (≈ 51.6 µM) | 1.56 (≈ 3.22 µM) | 3.13 (≈ 6.46 µM) | < 0.2 | 50 (≈ 103 µM) | > 200 | > 200
CC1(C)S[C@@H]2[C@H](NC(=O)[C@H](N)c3ccccc3)C(=O)N2[C@H]1C(=O)O [AMPICILLIN] |  | 0.78 (≈ 2.23 µM) | 1.56 (≈ 4.46 µM) | 3.13 (≈ 8.96 µM) | 1.56 (≈ 4.46 µM) | 12.5 (≈ 35.8 µM) | > 200 | > 200
NNC(=O)c1ccncc1 [ISONIAZID] | 0.03 (≈ 0.219 µM) |  |  |  |  |  |  | 
